In PMC9218239 (Current Research in Pharmacology and Drug Discovery, 2022):
Like-named read-outs stand apart in the source and are kept apart here.

Assays:
[1] = target: CYP2C9 pooled human supersomes (Homo sapiens, UniProt P11712); experiment: CYP2C9 supersome screening; assay type: in vitro ADME; details: 10 μM; strongly metabolized = less than 80% of the drug remaining
[2] = target: CYP2C19 pooled human supersomes (Homo sapiens, UniProt P33261); experiment: CYP2C19 supersome screening; assay type: in vitro ADME; details: 10 μM; strongly metabolized = less than 80% of the drug remaining
Chain of CYP2C19 pooled human supersomes (P33261 whole entry): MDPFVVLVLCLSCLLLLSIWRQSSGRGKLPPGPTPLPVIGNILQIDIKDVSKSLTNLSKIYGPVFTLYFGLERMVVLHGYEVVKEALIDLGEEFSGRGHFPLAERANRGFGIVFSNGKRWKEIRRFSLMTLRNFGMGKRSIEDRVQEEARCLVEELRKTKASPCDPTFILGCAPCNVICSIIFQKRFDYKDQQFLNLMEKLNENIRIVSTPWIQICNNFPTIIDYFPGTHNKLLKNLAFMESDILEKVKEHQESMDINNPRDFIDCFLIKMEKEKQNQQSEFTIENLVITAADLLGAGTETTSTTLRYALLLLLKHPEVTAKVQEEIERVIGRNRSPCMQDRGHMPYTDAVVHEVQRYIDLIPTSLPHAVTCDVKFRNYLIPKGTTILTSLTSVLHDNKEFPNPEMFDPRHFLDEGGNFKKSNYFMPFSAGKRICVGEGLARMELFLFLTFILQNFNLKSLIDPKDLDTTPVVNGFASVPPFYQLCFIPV

[3] = tested on: CYP1A2, 2C9, 2C19, 2D6, and 3A4 pooled human supersomes; details: 10 μM, recorded from major to minor
[4] = tested on: pooled cryopreserved primary human hepatocytes; details: single drug, 10 μM, 3 h

Chain of CYP2C9 pooled human supersomes (P11712 whole entry): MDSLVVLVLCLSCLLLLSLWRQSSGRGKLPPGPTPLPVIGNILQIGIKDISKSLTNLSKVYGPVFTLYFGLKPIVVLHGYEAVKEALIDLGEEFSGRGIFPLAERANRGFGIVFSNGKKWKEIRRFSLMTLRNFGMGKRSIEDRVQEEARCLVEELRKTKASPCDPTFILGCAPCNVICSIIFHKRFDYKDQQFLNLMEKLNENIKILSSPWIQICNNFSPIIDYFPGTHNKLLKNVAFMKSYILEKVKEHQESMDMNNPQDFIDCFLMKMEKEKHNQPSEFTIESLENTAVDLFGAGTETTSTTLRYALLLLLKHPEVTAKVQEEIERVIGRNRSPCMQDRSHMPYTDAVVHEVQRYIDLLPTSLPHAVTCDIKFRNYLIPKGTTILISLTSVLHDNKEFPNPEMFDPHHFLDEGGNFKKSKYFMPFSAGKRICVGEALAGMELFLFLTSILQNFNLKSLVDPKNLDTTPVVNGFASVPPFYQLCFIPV

Compound	Drug remaining with CYP2C19 (strongly metabolized) [2]	Metabolism Pathway: CYP Pathway (isoenzymes showing parent degradation) [3]	also measured
CN[C@H]1CC[C@@H](c2ccc(Cl)c(Cl)c2)c2ccccc21 [Sertraline, sertraline]	less than 80%	CYP 2D6∗, 2C9∗, 2C19∗, 1A2, 3A4	Drug remaining with CYP2C9 (strongly metabolized) [1]: less than 80%; Metabolism Pathway: CYP Pathway (isoenzymes showing parent degradation) ([3]; listed as sertraline): CYP2D6, 2C9, 2C19, 1A2, and 3A4
COc1ccc(C(CN(C)C)C2(O)CCCCC2)cc1 (centres unmarked) [Venlafaxine, venlafaxine]		CYP 2D6∗, 2C19∗	Metabolism Pathway: CYP Pathway (isoenzymes showing parent degradation) ([3]; listed as venlafaxine): CYP2D6 and 2C19
COc1cc2ncnc(Nc3ccc(F)c(Cl)c3)c2cc1OCCCN1CCOCC1 [Gefitinib, gefitinib]		CYP 2D6 ∗, 3A4∗, 1A2, 2C9, 2C19	Metabolism Pathway: CYP Pathway (isoenzymes showing parent degradation) ([3]; listed as gefitinib): CYP2D6, 3A4, 1A2, 2C9, and 2C19
COCCCC/C(=N\OCCN)c1ccc(C(F)(F)F)cc1 [Fluvoxamine, fluvoxamine]		CYP 2D6∗, 2C9, 2C19	Metabolism Pathway: CYP Pathway (isoenzymes showing parent degradation) ([3]; listed as fluvoxamine): CYP2D6, 2C9, and 2C19
Fc1ccc([C@@H]2CCNC[C@H]2COc2ccc3c(c2)OCO3)cc1 [Paroxetine, paroxetine]			Potential metabolites observed in hepatocytes (alone) assays [4]: no potential metabolites observed
CN(C)CCCC1(c2ccc(F)cc2)OCc2cc(C#N)ccc21 (centres unmarked) [Citalopram, citalopram]	less than 80%	CYP 2D6∗, 2C19∗, 3A4, 2C9	Metabolism Pathway: CYP Pathway (isoenzymes showing parent degradation) ([3]; listed as citalopram): CYP2D6, 2C19, 3A4, and 2C9
